Experimental data published in PMC11990103, “Anticancer Activity and Safety Profile of Novel 1-(4-Fluorophenoxyacetyl)-4-substituted Thio/Semicarbazide Derivatives” (Molecules, 2025).

What was measured:
zebrafish embryos = system: zebrafish embryos; design: method as in PMID 36436567; conditions: cited from earlier work
[1] = system: MDA-MB-231 breast cancer cell line; assay: MTT cytotoxicity assay; type: cell-based, human; conditions: 48 h treatment
Description: (§1) These cancer cell lines comprised prostate cancer (PC-3, DU-145, LNCaP), melanoma (SK-MEL28, A375, G-361), breast cancer (MCF-7, MDA-MB-231), and lung cancer (NCI-H1563). The MTT assay was carried out across a wide range of concentrations for 48 h.
(§2) The research was conducted on one primary cell line: BJ (fibroblast) and four types of cancerous ones: three prostate cancer cell lines (PC-3, DU-145, LNCaP); 3 Melanoma cell lines (MEL-28, A375, G-361); 2 breast cancer cell lines (MCF-7, MDA-MB-23) and one lung cancer cell line (NCI-H1563). All cell lines were obtained from the American Type Culture Collection (ATCC, Manassas, VA, USA) and were grown in media (Corning, New York, NY, USA) according to ATCC guidelines. The culture media was enriched with 10% heat-inactivated fetal bovine serum (Life Technologies, Carlsbad, CA, USA) and antibiotics: penicillin (100 units) and streptomycin (100 μg/mL) from Sigma-Aldrich (St. Louis, MO, USA). The cells were incubated at 37 °C with 5% CO2 in air.
(§3) The cytotoxic analysis of thiosemicarbazides (TSC) (AB1–AB6) and semicarbazides (SC) (AB7–AB12) was conducted in various concentrations. […] The cells were treated with compounds or DMSO as a vehicle in control cultures for 48h. IC50 values were determined using the AAT Bioquest IC50 calculator (AAT Bioquest, Inc., Pleasanton, CA, USA, Quest Graph™ EC50 Calculator. https://www.aatbio.com/tools/ec50-calculator) (accessed on 7 October 2024).
(§4) The cytotoxic activity of the thiosemicarbazides and semicarbazides was measured using the MTT colorimetric assay (MTT Cell Proliferation Assay Kit—Invitrogen, Waltham, MA, USA). The cells were seeded in the 96-well plates at a density of 1.5 × 10^5 cells/mL. After reaching 70–80% of confluence, the tested compounds in a wide range of concentrations were added. Plates were incubated for 48 h at 37 °C in 5% CO2 air. Then, […] tetrazolium salt (3-(4,5-dimethylthiazol-2-yl)-2,5-diphenyltetrazolium bromide)—MTT reagent (0.5 mg/mL) dissolved in PBS was added to each well for 4 h. The MTT solution was then removed from above the water-insoluble purple formazan crystals, which were then dissolved in DMSO (dimethyl sulfoxide, […]; POCH, Gliwice, Poland). The absorbance value of obtained solutions was measured using a PowerWave ™ microplate spectrophotometer (Bio-Tek Instruments, Winooski, VT, USA) at a wavelength of 570 nm. Each cytotoxicity assay was repeated three times in triplicates.

[2] = system: PC-3 prostate cancer cell line; assay: MTT cytotoxicity assay; type: cell-based, human; conditions: 48 h treatment
Description: as §1, §2, §3, §4

[3] = system: MCF-7 breast cancer cell line; assay: MTT cytotoxicity assay; type: cell-based, human; conditions: 48 h treatment
Description: as §1, §2, §3, §4

G-361 melanoma cell line = assay: MTT cytotoxicity assay; type: cell-based, human; conditions: MTT, 48 h treatment
Description: as §1, §2, §3, §4

[4] = system: NCI-H1563 lung cancer cell line; assay: MTT cytotoxicity assay; type: cell-based, human; conditions: 48 h treatment
Description: as §1, §2, §3, §4

A375 melanoma cell line = assay: MTT cytotoxicity assay; type: cell-based, human; conditions: 48 h treatment
Description: as §1, §2, §3, §4

[5] = system: SK-MEL28 melanoma cell line; assay: MTT cytotoxicity assay; type: cell-based, human; conditions: 48 h treatment
Description: as §1, §2, §3, §4

[6] = system: DU-145 prostate cancer cell line; assay: MTT cytotoxicity assay; type: cell-based, human; conditions: 48 h treatment
Description: as §1, §2, §3, §4

[7] = system: LNCaP prostate cancer cell line; assay: MTT cytotoxicity assay; type: cell-based, human; conditions: MTT, 48 h treatment
Description: as §1, §2, §3, §4

[8] = system: tested cancer cell lines (PC-3, DU-145, LNCaP, SK-MEL28, A375, G-361, MCF-7, MDA-MB-231, NCI-H1563); assay: MTT cytotoxicity assay, panel of nine cancer cell lines as a whole; type: cell-based, human
Description: as §1
The research was conducted on one primary cell line: BJ (fibroblast) and four types of cancerous ones: three prostate cancer cell lines (PC-3, DU-145, LNCaP); 3 Melanoma cell lines (MEL-28, A375, G-361); 2 breast cancer cell lines (MCF-7, MDA-MB-23) and one lung cancer cell line (NCI-H1563). […]
The cytotoxic analysis of thiosemicarbazides (TSC) (AB1–AB6) and semicarbazides (SC) (AB7–AB12) was conducted in various concentrations. […] IC50 values were determined using the AAT Bioquest IC50 calculator (AAT Bioquest, Inc., Pleasanton, CA, USA, Quest Graph™ EC50 Calculator. https://www.aatbio.com/tools/ec50-calculator) (accessed on 7 October 2024).
The cytotoxic activity of the thiosemicarbazides and semicarbazides was measured using the MTT colorimetric assay (MTT Cell Proliferation Assay Kit—Invitrogen, Waltham, MA, USA). […] The absorbance value of obtained solutions was measured using a PowerWave ™ microplate spectrophotometer (Bio-Tek Instruments, Winooski, VT, USA) at a wavelength of 570 nm. […]

BJ fibroblasts = assay: MTT cytotoxicity assay, normal cells; type: cell-based, human; conditions: 48 h treatment, read-out: IC50 BJ (fibroblast)
Description: as §1, §2, §3, §4

G-361 melanoma cells = system: G-361 melanoma cells; design: method as in PMID 35204651; conditions: cited from earlier work
[9] = design: method as in PMID 14912098; conditions: as toxic as thiosemicarbazide; cited from earlier work

Row | Compound | morphological abnormalities, including cardiotoxicity (zebrafish embryos) | IC50 [1] [µM] | IC50 [2] [µM] | IC50 [3] [µM] | IC50 (G-361 melanoma cell line) [µM] | IC50 [4] [µM] | IC50 (A375 melanoma cell line) [µM] | IC50 [5] [µM] | IC50 [6] [µM] | IC50 [7] [µM] | IC50 ([8]; MTT, 48 h, thiosemicarbazides tested 500 to 100 μM, semicarbazides 100 μM to 1 μM, read-out: IC50 in the tested cancer cell lines (stated for the panel)) [µM] | IC50 (BJ fibroblasts) [µM] | selectivity index (SI) ([8]; IC50 normal cells (BJ) divided by IC50 cancer cells, cell line not specified) | population of cells in the sub-G1 phase (G-361 melanoma cells) | toxicity relative to thiosemicarbazide [9]
1 | CCNC(=O)NNC(=O)c1ccc([N+](=O)[O-])cc1 [1-(4-nitrobenzoyl)-4-ethylsemicarbazide] | do not cause morphological abnormalities, including cardiotoxicity |  |  |  |  |  |  |  |  |  |  |  |  |  | 
2 | CCCCCCNC(=O)NNC(=O)Cc1ccc([N+](=O)[O-])cc1 [1-[(4-nitrophenyl)acetyl]-4-hexylsemicarbazide] | do not cause morphological abnormalities, including cardiotoxicity |  |  |  |  |  |  |  |  |  |  |  |  |  | 
3 | O=C(COc1ccc(F)cc1)NNC(=S)Nc1ccccc1 [AB1] |  | > 500 | > 500 | > 500 | 369 | > 500 | > 500 | > 500 | > 500 | 252 | > 500 | 498 |  |  | 
4 | O=C(COc1ccc(F)cc1)NNC(=S)Nc1cccc(Cl)c1 [AB3] |  | 495 | 467 | 456 | 248 | 437 | 400 | 302 | 268 | 175 |  | 422 |  |  | 
5 | O=C(COc1ccc(F)cc1)NNC(=S)Nc1ccc(Cl)cc1 [AB4] |  | 421 | 355 | 343 | 265 | 293 | 399 | 322 | 297 | 257 |  | 313 |  |  | 
6 | O=C(COc1ccc(F)cc1)NNC(=S)Nc1ccc(Cl)cc1Cl [AB5] |  | 445 | 395 | 421 | 276 | 372 | 384 | 297 | 401 | 154 |  | 303 |  |  | 
7 | O=C(COc1ccc(F)cc1)NNC(=S)Nc1ccc(Cl)c(Cl)c1 [AB6] |  | 334 | 388 | 240 | 210 | 242 | 257 | 195 | 343 | 121 |  | < 100 | < 1 |  | 
8 | N.N.[Cl][Pt][Cl] [Cisplatin, reference compound] |  | 38.7 | 52.2 | 22.6 | 12.5 | 2.78 | 18.2 | 25.8 | 64.1 | 31.5 |  |  |  |  | 
9 | CSc1ccc(NC(=S)NNC(=O)COc2ccc(Cl)cc2Cl)cc1 [PK2] |  |  |  |  |  |  |  |  |  |  |  |  |  | increase | 
10 | NNC(N)=O [semicarbazide] |  |  |  |  |  |  |  |  |  |  |  |  |  |  | about 1/20
